This note sets out measurements from the METLIN SMRT retention time set (Domingo-Almenara et al. 2019).

The series can be described thus: gradient 5% acetonitrile 3 min, to 50% in 2 min, to 85% in 15 min, held 3 min, 100 µL/min. The settings on record: column: Zorbax Extend-C18 2.1 x 50 mm; eluents: water / acetonitrile, 0.1% formic acid. The gist of the method: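 The system's dead and dwell volumes were 40 μL and 900 μL, with a Zorbax Extend-C18 column (2.1 × 50 mm, 1.8 μm) run at 100 μL/min in water and acetonitrile containing 0.1% formic acid each. Pure standards were analyzed in mixtures of ~100 molecules by HPLC–quadrupole time-of-flight mass spectrometry in positive and negative ionization mode. Retention time was assigned from computationally picked, manually inspected adduct peaks.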
In turn, `CCOC(=O)Cc1n[nH]c(CSc2nc3ccccc3s2)n1` registered an RP-LC retention time of 691 s.
The same measure for `CCc1ccc2[nH]c3c(c(=O)c2c1)CN(CC(=O)NCc1ccc(Cl)cc1)CC3`: 656 s; for `CCN(Cc1ccc(Cl)cc1)Cc1cc(=O)n2ccc(C)cc2n1`: 634 s.
For `COc1ccc(-c2nnc(N3CCC(C(=O)N4CCOCC4)CC3)o2)cc1`, the RP-LC retention time is 664 s.
The same measure for `O=C(NCc1ccc(N2CCCC2)cc1)c1sc2ncccc2c1-n1cccc1`: 1130 s; for `O=C1c2ccccc2C(=O)N1CCSc1nnc2sc3ccccc3n12`: 696 s.
`COc1cccc(CNC(=O)C2CCN(S(=O)(=O)c3cn(C(C)C)cn3)CC2)c1` returned an RP-LC retention time of 714 s.
The same measure for `Cc1cccc(N2CCN(C(=O)c3cn4c(n3)CCCC4)CC2)c1C`: 690 s; for `O=C(CCc1cc2ccccc2[nH]c1=O)N1CCN(C(=O)c2ccco2)CC1`: 638 s.
As to `Cc1ccccc1-c1nc2cnccn2c1NCCC(=O)NC1CCCCC1`, the RP-LC retention time came out at 678 s.
As for `Cc1nn(CC(=O)NCC2CCCCC2)c(=O)c2nc(-c3ccccc3)sc12`, the RP-LC retention time was 958 s.
Consider `COc1cc(OC)cc(-c2noc(CCn3nc(-c4ccc(Cl)cc4)ccc3=O)n2)c1`, for which the RP-LC retention time worked out at 1060 s.
In turn, `CCOC(=O)c1[nH]c(C)c(CCC(=O)N2CCC(C(=O)NC(C)C)CC2)c1C` came in with an RP-LC retention time of 683 s.
Take `O=C(Nc1ccccc1)c1c(O)c2cccnc2n(-c2ccc(F)cc2)c1=O`: the RP-LC retention time stood at 1210 s.
With `Cc1ccc(Nc2c(-c3cccc([N+](=O)[O-])c3)nc3cc(C)ccn23)cc1`, the RP-LC retention time worked out at 794 s.
In turn, `CCc1nc2sc(C)nn2c1S(=O)(=O)N1CCOCC1` showed an RP-LC retention time of 699 s.
The same measure for `CCOc1ccccc1CNC(=O)C1CCCN(c2nnc3ccc(Cl)cn23)C1` (stereo not given): 826 s; for `COc1nn(C)cc1C(=O)Nc1nc(-c2nc3ccccc3s2)cs1`: 837 s; for `CC(C)Cn1c(=O)c(N2CCN(C(=O)NCc3ccco3)CC2)nc2ccncc21`: 616 s.
Consider `O=C(Cc1ccccc1)Nc1cccc(C(=O)Nc2ccccc2C(=O)O)c1`, for which the RP-LC retention time stood at 830 s.
The same measure for `O=C(Cn1cccn1)NC1CCc2nnc(C3CC3)n2CC1` (stereo not given): 543 s.
On to `CC1(C(=O)NC2CCCCC2)CN(S(C)(=O)=O)CC(=O)N1c1ccc(Cl)cc1` (stereo not given), for which the RP-LC retention time turned out to be 860 s.
The same measure for `COc1ccc(C2C(C(=O)NCCN(C)C)c3cc(OC)c(OC)cc3C(=O)N2C)cc1OC` (stereo not given): 589 s; for `Cc1onc(-c2ccccn2)c1C(=O)NCCCN1CCN(C2CCCCC2)CC1`: 582 s; for `Cn1nc(C(=O)N2CCC(C(=O)NC3CCCCCC3)CC2)c2c1CCN(C(=O)c1ccccc1)C2`: 742 s.
Regarding `CC1Oc2ccc(S(=O)(=O)N3CCC(C(=O)Nc4ccc(C(C)C)cc4)CC3)cc2NC1=O` (stereo not given), the RP-LC retention time was 916 s.
The same measure for `CCc1ccc(S(=O)(=O)N2CCC3(CC2)NCCN=C3NCc2ccc(F)c(Cl)c2)cc1`: 831 s; for `O=S(=O)(c1cccn2c(SCc3cccc(Br)c3)nnc12)N1CCCCC1`: 930 s.
Regarding `COCCn1c(=O)c2c(nc3n2CCCN3c2ccccc2)n(C)c1=O`, the RP-LC retention time was determined as 738 s.
Compound `CC(C)CC(=O)NCC1Cn2cccc2C(=O)N1C` (stereo not given) had an RP-LC retention time of 620 s.
Compound `CCN1C(=O)c2c(C(=O)NCc3cccc(F)c3)ncn2CC1(C)C(=O)NC1CCCC1` (stereo not given) gave an RP-LC retention time of 762 s.
`CCc1cc(=O)n(CC(=O)Nc2cc(F)ccc2F)c(N2CCOCC2)n1` gave an RP-LC retention time of 770 s.
The same measure for `COc1ccc(Cl)c2c(=O)c3c([nH]c12)CCN(CC(=O)Nc1ccc2c(c1)OCCO2)C3`: 610 s.
`Cc1noc(/C=C\c2ccc(S(=O)(=O)N3CCCC3)cc2)c1NC(=O)C1CC1` had an RP-LC retention time of 837 s.
The same measure for `COc1ccc(-c2ccnc3cc(C(=O)Nc4ccc5c(c4)OCO5)nn23)cc1OC`: 848 s; for `CCN1CCN(c2nc3cc(C(=O)OC)ccc3c(=O)n2-c2cc(OC)cc(OC)c2)CC1`: 661 s; for `CCOC(=O)c1[nH]c(C)c(C(=O)C(C)N(C(=O)c2ccc(F)cc2)C2CC2)c1C` (stereo not given): 890 s.
Take `CN(C)c1cc(N2CCCC(NC(=O)c3cccnc3)C2)ncn1` (stereo not given): the RP-LC retention time turned out to be 553 s.
As to `Cc1cc(Nc2ccc(Cl)cc2C)n2ncnc2n1`, the RP-LC retention time was 806 s.
On to `CCCCc1ccc(NC(=O)Cn2cnc3nc(N4CCCC(C(=O)NCC)C4)sc3c2=O)cc1` (stereo not given), for which the RP-LC retention time amounted to 801 s.
The same measure for `Cc1ccc(NC(=O)Cn2cnc3nc(N4CCC(C(=O)NC5CC5)CC4)sc3c2=O)c(C)c1`: 678 s.
The same measure for `Cc1ccc(N2CC(c3noc(-c4ccc5c(c4)OCO5)n3)CC2=O)cc1` (stereo not given): 957 s.
The same measure for `Cc1nnc(N2CCCC(C(=O)NCc3ccccc3F)C2)c2nn(-c3ccc(Cl)cc3)c(C)c12` (stereo not given): 771 s; for `O=C(NCc1ccc(F)cc1)N1CCCC(Cn2c(C3CC3)nc3cccnc32)C1` (stereo not given): 669 s.
Compound `Cc1sc(-c2cc(C(F)(F)F)on2)cc1S(=O)(=O)N1CCOCC1` had an RP-LC retention time of 1040 s.
Compound `C=CC(C)(C)c1cc(/C=C/C(=O)c2ccc(O)cc2)c(OC)cc1O` displayed an RP-LC retention time of 903 s.
Compound `CCOc1ccc(NC(=O)N2CCc3cn(CC)c4cccc(c34)C2)cc1` had an RP-LC retention time of 952 s.
`COCCn1c(C2CCN(S(=O)(=O)c3ccc(F)cc3)C2)nc2cccnc21` (stereo not given) had an RP-LC retention time of 763 s.
In turn, `COCCN1CCC(N2CCN(S(=O)(=O)c3ccc(F)c(Cl)c3)CC2)C1=O` (stereo not given) returned an RP-LC retention time of 620 s.
For the compound `CC(Oc1ccccc1)c1nc(-c2ccc3c(c2)nnn3CCC(=O)N2CCCC2)no1` (stereo not given), the RP-LC retention time worked out at 899 s.
Turning to `CCSc1nnc(-c2nn(C)c3c2CN(S(=O)(=O)c2ccccc2Cl)CC3)n1CC`, the RP-LC retention time was 948 s.
`CCn1cc(C(=O)NCc2ccccc2)c2cccnc21` registered an RP-LC retention time of 782 s.
As for `Cc1ncoc1C(=O)N1CCC(c2noc(-c3cccnc3)n2)C1` (stereo not given), the RP-LC retention time was 640 s.
The same measure for `CC1CCN(C(=O)c2ccc3ncnc(N4CCCCC4)c3c2)CC1`: 638 s.
Turning to `NC(=O)c1ccccc1NC(=O)C1CCN(C(=O)c2ccccc2F)CC1`, the RP-LC retention time was 669 s.
Consider `O=C(O)c1cn(-c2ccc3c(c2)OCO3)nn1`, for which the RP-LC retention time came to 645 s.
The same measure for `COc1cccc(S(=O)(=O)N2CCc3c(c(-c4nnc(-c5ccccc5F)o4)nn3C)C2)c1`: 916 s; for `COc1ccc(C2(C(=O)N3CCN(C(=O)c4cc(-c5cccnc5)n[nH]4)CC3)CC2)cc1`: 621 s.
In the case of `COc1ccc(C2C(C(=O)N3CCOCC3)=C(C)NC3=C2C(=O)CCC3)cc1Br` (stereo not given), the RP-LC retention time worked out at 653 s.
The compound `Cc1ccc(-c2nc(N)n(S(=O)(=O)c3ccc(C)cc3)n2)cc1` returned an RP-LC retention time of 969 s.
`COC(=O)c1ccccc1NC(=O)c1ccc(-n2ccnc2)nn1` had an RP-LC retention time of 666 s.
`Cc1ccc(Cn2c(=O)n(CCNC(=O)Cc3ccsc3)c3ncccc32)cc1` yielded an RP-LC retention time of 824 s.
In turn, `CN(C)c1cc(C(N)=O)c2ccccc2n1` showed an RP-LC retention time of 694 s.
Regarding `COc1ccc(NC(=O)Cn2c(N3CCOCC3)nc(C)cc2=O)c(OC)c1`, the RP-LC retention time was 669 s.
The same measure for `O=C(Cn1c(=O)oc2ccccc21)N1CCC(c2noc(-c3ccncc3)n2)C1` (stereo not given): 712 s; for `CCc1ccc2c(-c3cccc(Cl)c3)nc(=O)n(CC)c2n1`: 1120 s.
`CC(=O)N1c2ccc(S(=O)(=O)N3CCCCCC3)cc2CC1C(=O)NCCc1ccc(C)cc1` (stereo not given) yielded an RP-LC retention time of 957 s.
As for `Cc1ccc(NC(=O)Cn2ccc3sccc3c2=O)cc1C`, the RP-LC retention time amounted to 740 s.
In turn, `CCC(=O)N1CCC2(CC1)NC(=O)c1ccccc1O2` gave an RP-LC retention time of 649 s.
On to `CCCn1c(C)cnc1C1CN(S(=O)(=O)c2ccccc2Cl)C1`, for which the RP-LC retention time turned out to be 660 s.
Take `COCCN(Cc1ccncc1)C(=O)c1ccccc1SC`: the RP-LC retention time was 557 s.
Take `COc1ccc(-c2nc(-c3ccc4nnn(C(C)C)c4c3)no2)cc1`: the RP-LC retention time was 1140 s.
On to `CN1C(=O)Cc2cc(NC(=O)c3cccs3)ccc21`, for which the RP-LC retention time was determined as 631 s.
For the compound `Cc1[nH]c(C(=O)N2CCC(CC(=O)NCCCN3CCCC(C)C3)CC2)c(C)c1C` (stereo not given), the RP-LC retention time turned out to be 610 s.
For `O=C(c1nnc(-c2ccc(S(=O)(=O)N3CCCC3)cc2)o1)N1CCN(c2ccccn2)CC1`, the RP-LC retention time came to 650 s.
With `Cc1ccc(Cn2cccc2C(=O)C(=O)NCc2ccc(C)o2)cc1`, the RP-LC retention time was determined as 1080 s.
On to `CCc1nnc([C@@H]2CC(F)(F)CN2C(=O)Cn2ccc(C)n2)o1`, for which the RP-LC retention time was found to be 646 s.
In turn, `Cn1ccc2c(cc(C(=O)NCc3cccc(Br)c3)n2C)c1=O` had an RP-LC retention time of 733 s.
`COc1ccc(CNC(=O)c2c(C)oc3ccn(C)c(=O)c23)cc1` gave an RP-LC retention time of 824 s.
Regarding `CNc1nccc(N2CCC(CC(=O)N3CCCCCC3)CC2)n1`, the RP-LC retention time was 539 s.
